How the values were obtained:
[1] = system: C57B/6J mice; experiment: Treadmill running endurance test; assay type: in vivo, mouse; settings: 500 mg/kg/day, 4 weeks, no exercise
Description: Mice were acclimated to moderate treadmill running (10 m/min for 15 min) every other day for 1 week. After acclimation, basal running endurance was determined by placing each mouse on a treadmill, gradually increasing the speed from 0 to 15 m/min, and maintaining 15 m/min until the mouse was exhausted. The time and distance run until exhaustion were recorded as the basal endurance values (Week 0).
Treatments were administered orally.
Expression of biomarkers characteristic of an oxidative phenotype in skeletal muscle, typically, has been correlated with increased oxidative performance (e.g., increased running endurance) of such skeletal muscle. […] Accordingly, to determine the functional effects of ligand, age and weight matched cohorts of treated and control mice were subjected to an endurance treadmill performance test before (week 0) and after (week 5) treatment.
In addition to affecting the contractile apparatus of skeletal muscle, exercise training also increases skeletal muscle mitochondrial density (e.g., Freyssenet et al., Arch. Physiol. Biochem., 104(2): 129-141, 1996). […] Mice in all groups were acclimated to moderate treadmill running and basal running endurance was determined as described in Example 1. Thereafter, mice in the exercise-trained groups received four weeks (5 days/week) of exercise training on a treadmill inclined at 5 degrees. […] At the end of four weeks, all exercise-trained mice were running for 50 min/day at 18 m/min. […] Unless otherwise noted, V, GW, Tr and GW+Tr subjects described in this and the examples below were similarly treated. At the end of the drug treatment and/or training protocol (Week 5) 6 mice per group were subjected to the running test. […] RNA was prepared real time quantitative PCR performed as described in Example 1.
At the end of the drug treatment and/or training protocol (Week 5) 6 mice per group were subjected to the running test.
At the end of the drug treatment and/or training protocol (Week 5), running endurance of six mice per group was determined in the same manner as was basal running endurance. […] on three mice in each group to confirm that changes observed in the skeletal muscle were not due to the acute run, but were related to the exercise training.

[2] = system: myoglobin, UCP3, cytochrome c (CYCS) and SCDl; experiment: Western blotting of oxidative biomarkers in quadriceps; assay type: in vivo, mouse; settings: AICAR 500 mg/kg/day, 4 weeks, quadriceps
Description: In addition to gene expression, protein expression was determined for selective oxidative biomarkers including myoglobin, UCP3, cytochrome c (CYCS) and SCDl, using Western blotting. Protein homogenates were prepared from quadriceps muscle, separated by SDS polyacrylamide gel electrophoresis, transferred to blotting membrane and probed with antibodies specific for myoglobin (Dako), UCP3 (Affinity Bioreagents), cytochrome c (Santacruz) SCDl (Santacruz), and, as a loading control, tubulin (Sigma).

[3] = system: quadriceps muscle; experiment: Microarray analysis of quadriceps (Affymetrix mouse genome 430A 2.0); assay type: in vivo
[4] = system: AMPK; experiment: Western blot of phospho-AMPK in quadriceps; assay type: in vivo, mouse; settings: AICAR 500 mg/kg/day, 4 weeks, quadriceps
Source text: Exercise training is known to activate kinases, such as p44/42 MAPK and AMPK, which regulate gene expression in skeletal muscle (Chen et al., Diabetes, 52:2205-12, 2003; Goodyear et al., Am. J. Physiol, 271:[…]-8, 1996). AMPK affects skeletal muscle gene expression and oxidative metabolism (Chen et al., Diabetes. 52: 2205-12, 2003, Reznick et al., J. Physiol. 574: 33-9, 2006). The interaction between exercise-regulated kinases and PPARδ signaling is described in this Example. The levels of phospho-p44/42 MAPK and phospho-AMPK a subunit and total AMPK were determined in protein homogenates of quadriceps muscle by Western blot. Antibodies specific for phospho-p44/42 MAPK, phospho- and total-AMPK αl antibodies were obtained from Cell Signaling. The phospho-specific AMPK αl antibody recognizes the key activating threonine in the activation loop.

[5] = Oxygen consumption; assay type: in vivo, mouse; settings: AICAR 500 mg/kg/day, 4 weeks
[6] = AICAR alone, untrained mice, quadriceps

## NC(=O)c1ncn([C@@H]2O[C@H](CO)[C@@H](O)[C@H]2O)c1N [AICAR, 5-amino-4-imidazolecarboxamide riboside]
[1]
  ran further than vehicle-treated mice (distance): ~44%
  ran longer than vehicle-treated mice (time): ~23%
[2]
  expression of UCP3 (immunoblot): increased expression
[3]; [6]
  Aacs expression: 1.875
  Acly expression: 1.687
  Adipoq expression: 2.043
  Ak2 expression: 1.486
  Apoe expression: 1.403
  Cd36 expression: 1.386
  Ces3 expression: 1.516
  Cidea expression: 5.021
  Dgat2 expression: 2.034
  Elovl6 expression: 2.134
  Fabp4 expression: 1.709
  Fasn expression: 2.098
  Lep expression: 2.047
  Lipe expression: 1.64
  Lpl expression: 1.386
  Mgll expression: 1.503
  Mgst1 expression: 1.602
  Nrip1 expression: 1.474
  Pck1 expression: 2.68
  Pcx expression: 1.393
  Pdk4 expression: 1.321
  Pparg expression: 3.027
  Retn expression: 1.891
  Scd1 expression: 1.931
  Sdhd expression: 1.529
  Sfxn1 expression: 1.713
  Slc25a5 expression: 1.372
  Sult1a1 expression: 2.021
  Tspo expression: 1.441
  Ucp1 expression: 3.623
  Ucp3 expression: 1.258
[3]; AICAR treatment alone
  number of upregulated genes linked to oxidative metabolism: 32 genes
[4]
  phosphorylation of AMPK a subunit and acetyl CoA carboxylase (ACC): increased phosphorylation
[5]
  oxygen consumption: increased
